In patent publication US20070213340A1, “Farnesyl protein transferase inhibitors” (priority 2006, published 2007) one finds IC50 data, which are given here for five compounds.

The structures appear in SMILES notation.

In the assay the target is farnesyl protein transferase (Homo sapiens, UniProt P49354+P49356). Put plainly: FPT IC50 (inhibition of farnesyl protein transferase, in vitro enzyme assay). The class given is biochemical. The note with it: procedure of WO 95/10516. On the procedure: FPT IC50 (inhibition of farnesyl protein transferase, in vitro enzyme assay) was determined, and COS Cell IC50 (Cell-Based Assay) could be determined following the assay procedures described in WO 95/10516, published Apr. 20, 1995. GGPT IC50 (inhibition of geranylgeranyl protein transferase, in vitro enzyme assay), Cell Mat Assay, and anti-tumor activity (in vivo anti-tumor studies) could be determined by the assay procedures described in WO 95/10516. The disclosure of WO 95/10516 is incorporated herein by reference thereto.
For the compound `CCOC(=O)CCCNC(=O)[C@H]1CN(C(=O)OC(C)(C)C)CCN1C1c2ccc(Cl)cc2CCc2cccnc21` (single isomer, unassigned) [compound 6, 4-(8-Chloro-6,11-dihydro-5H-benzo[5,6]cyclohepta[1,2-b]pyridin-11-yl)-3R-(3-ethoxycarbonyl-propylcarbamoyl)-piperazine-1-carboxylic acid tert-butyl ester], the IC50 stood at 5.2 nM. As for `CCOC(=O)CCCNC(=O)[C@H]1CN(C(=O)OC(C)(C)C)CCN1C1c2ccc(Cl)cc2CCc2cccnc21` (single isomer, unassigned) [compound 7, 4-(8-Chloro-6,11-dihydro-5H-benzo[5,6]cyclohepta[1,2-b]pyridin-11-yl)-3R-(3-ethoxycarbonyl-propylcarbamoyl)-piperazine-1-carboxylic acid tert-butyl ester], the figure is 5.5 nM; as for `CC(C)(C)OC(=O)N1CCN(C2c3ccc(Cl)cc3CCc3cccnc32)[C@@H](C(=O)NCCCC(=O)O)C1` (single isomer, unassigned) [compound 8, 3R-(3-Carboxy-propylcarbamoyl)-4-(8-chloro-6,11-dihydro-5H-benzo[5,6]cyclohepta[1,2-b]pyridin-11-yl)-piperazine-1-carboxylic acid tert-butyl ester], 5.5 nM; as for `CC(C)(C)OC(=O)N1CCN(C2c3ccc(Cl)cc3CCc3cccnc32)[C@@H](C(=O)NCCCC(=O)O)C1` (single isomer, unassigned) [compound 9, 3R-(3-Carboxy-propylcarbamoyl)-4-(8-chloro-6,11-dihydro-5H-benzo[5,6]cyclohepta[1,2-b]pyridin-11-yl)-piperazine-1-carboxylic acid tert-butyl ester], 6.3 nM. Consider `CC(C)(C)OC(=O)N1CCN(C2c3ccc(Cl)cc3CCc3cccnc32)[C@@H](C(=O)NCCCn2ccnc2)C1` (stereo partly drawn) [Compound 12, 4-(8-Chloro-6,11-dihydro-5H-benzo[5,6]cyclohepta[1,2-b]pyridin-11-yl)-3R-(3-imidazol-1-yl-propylcarbamoyl)-piperazine-1-carboxylic acid tert-butyl ester], for which the IC50 was 1.2 nM.

Usually IC50 stands for the concentration at which inhibition is half-maximal. A lower IC50 goes with greater potency.
